Reference: paper PMC11048155, “Antiviral Drug Candidate Repositioning for Streptococcus suis Infection in Non-Tumorigenic Cell Models” (Biomedicines, 2024)
In brackets after ≈: the same amount, converted by molar mass. Entries after “also recorded” stand apart in the source; their conditions may differ. Read-outs that look alike come from different tables or passages of the source.

How the values were obtained:
[1] = tested on: Escherichia (E.) coli (ATCC 11775); assay: MIC measurement (broth microdilution); type: cell-based; conditions: source ATCC, 18–24 h at 37 °C
[2] = tested on: primary porcine hepatocytes; assay: Cell viability, Neutral red assay; type: cell-based; conditions: S. suis 10^4 CFU/mL in combination with inhibitor 50 µM, 24 h
Method: Porcine cryopreserved primary hepatocytes were obtained from Primacyt Cell Culture Company (Schwerin, Germany). Lonza Group Ltd. (Biocenter Ltd., Szeged, Hungary) supplied the thawing, plating, and maintenance media. The cytotoxic effects of inhibitors MI-432, MI-471, and MI-476 were tested on the viability of primary hepatocytes using the NR method. The hepatocytes were cultivated on a 96-well plate for 24 h, followed by incubation with the inhibitors at 0, 50, and 100 µM for an additional 24 h. Only cell maintenance medium was used to incubate the control cells. The plate underwent incubation together with NR dye for 2 h. Hepatocyte viability was recorded at 540 nm with a SpectraMax iD3 microplate reader.

IPEC-J2 cells [3] = assay: EC H2O2 production, Amplex red method; type: cell-based, porcine; conditions: 24 h
Method: For oxidative status measurements, inhibitors MI-432, MI-471, or MI-476 were used at 50 µM in the absence and presence of S. suis for 24 h in IPEC-J2 cells and in primary porcine hepatocytes on 24-well plates. An Amplex red hydrogen peroxide assay kit was used to monitor EC hydrogen peroxide (H₂O₂) production in IPEC-J2 cells and in hepatocytes. Following the manufacturer’s instructions, cell-free supernatants were collected and mixed with the Amplex red working solution (in a ratio of 1:1). A Victor X2 2030 fluorometer was used to detect fluorescence intensity at wavelengths 530 nm and 590 nm for excitation and emission, respectively.

SARS-CoV-2 = tested on: SARS-CoV-2; parameters: method as in PMID 32703818; conditions: human airway cells, synergistically in combination with furin inhibitor MI-1851; cited from earlier work
monkey CYP1A2 enzymes = conditions: cited from earlier work
S. suis serotype 2 = assay: MIC measurement (broth microdilution); type: cell-based, Streptococcus suis; conditions: source 672/22, 18–24 h at 37 °C
[4] = tested on: Staphylococcus (S.) aureus (ATCC 10832); assay: MIC measurement (broth microdilution); type: cell-based; conditions: source ATCC, 18–24 h at 37 °C
IPEC-J2 cells [5] = assay: IL-6 production, porcine IL-6 ELISA; type: cell-based; conditions: IPEC-J2, S. suis 10^4 CFU/mL in combination with inhibitor, 24 h
Method: (§1) After 24 h incubation time, the cell-free supernatants from […], MI-471, and MI-476 exposure were sampled from IPEC-J2 cells and from porcine hepatocytes. The changes in cytokine levels were detected with porcine IL-6 ELISA kits. The manufacturer’s instructions were followed to treat the supernatants and measured by a SpectraMax iD3 microplate reader at 450 nm.

porcine hepatocytes = assay: IL-6 production, porcine IL-6 ELISA; type: cell-based; conditions: S. suis 10^4 CFU/mL in combination with inhibitor, 24 h
Method: as §1

[6] = tested on: Enterococcus (E.) faecalis (clinical isolate); assay: MIC measurement (broth microdilution); type: cell-based
IPEC-J2 cells [7] = assay: Cell viability, Neutral red assay; type: cell-based, porcine; conditions: IPEC-J2, S. suis 10^4 CFU/mL in combination with inhibitor 50 µM, 24 h
Text: The IPEC-J2 cell line is unique as it is non-transformed and non-tumorigenic. IPEC-J2 cells are derived from intestinal enterocytes extracted from the jejunum of neonatal unsuckled piglets. IPEC-J2 cells were gifted by Dr. Jody Gookin (Department of Clinical Sciences, College of Veterinary Medicine, North Carolina State University, Raleigh, NC, USA). […] The cells had undergone passage around 50 times. […] This experiment included plain DMEM/F12 medium as a control. At the end of the final treatments (24 h), the ratio of viable cells was measured by absorbance at 540 nm wavelength with a SpectraMax iD3 microplate reader.

[8] = tested on: Burkholderia (B.) cepacia (clinical isolate); assay: MIC measurement (broth microdilution); type: cell-based
[9] = tested on: Salmonella (S.) enterica (clinical isolate); assay: MIC measurement (broth microdilution); type: cell-based; conditions: source 204/22, 18–24 h at 37 °C
Text: Bacterial strains used in this study were as follows: S. suis serotype 2 (ATCC 958242) Staphylococcus (S.) aureus (ATCC 10832), Escherichia (E.) coli (ATCC 11775), Pseudomonas (P.) aeruginosa (ATCC 27853), Pasteurella (P.) multocida (clinical isolate), Burkholderia (B.) cepacia (clinical isolate), Salmonella (S.) enterica (clinical isolate), and Enterococcus (E.) faecalis (clinical isolate). Of the clinical isolates used in this study, P. multocida is of porcine origin, B. cepacia is of human origin, and S. enterica and E. faecalis are of poultry origin. The bacterial strains were stored in the Microbiology Laboratory of the University of Veterinary Medicine, Budapest, at a temperature of −80 °C. Bacterial strains were inoculated the day before the test in 5 mL of Cation-Adjusted Mueller–Hinton Broth (CAMHB) and incubated for 18–24 h at 37 °C. The initial inoculum concentration used for the MIC assay was 5 × 10^5/mL. All wells except the first column of the working plates were filled with 90 µL CAMHB. A stock solution of inhibitors at 800 µM was then prepared, 180 µL of which was measured into the first column of plates and used to prepare a 2-based dilution on 96-well plates. After the 10th column, the tips were discarded with the 90 µL excess solution so that each column contained 90 µL of solution. Each bacterial strain was tested in a single row on the working plates. A bacterial suspension diluted to 25× was prepared on an auxiliary plate for bacterial inoculation by loading 240 µL of TSB per column of plates and adding 10–10 µL of bacterial strain suspension per well. In the next step, the isolated bacterial strains were inoculated onto the plates. Starting from column 11 (positive control) of the plates containing dilution row 2, 10 µL of bacterial suspension was added to each well, working backward. Column 11 served as a positive control (containing only bacterial suspension and broth), while column 12 served as a negative control (containing only broth). The microplates were then incubated at 37 °C for 18–24 h, and the MIC values were assessed in comparison to positive controls.

[10] = tested on: Pseudomonas (P.) aeruginosa (ATCC 27853); assay: MIC measurement (broth microdilution); type: cell-based; conditions: source ATCC, 18–24 h at 37 °C
[11] = tested on: Pasteurella (P.) multocida (clinical isolate); assay: MIC measurement (broth microdilution); type: cell-based; conditions: source 380/22, 18–24 h at 37 °C
[12] = tested on: S. suis strains isolated from pigs; conditions: cited from earlier work; for S. suis strains found to be sensitive: strains isolated from pigs, European VetPath survey 2005–2012; for S. suis strains sensitive: same survey (VetPath)
CYP2D6 = CYP2D6 (Homo sapiens, UniProt P10635); assay: CYP enzyme fluorometric activity measurement, human hepatic microsomes; conditions: reference inhibitor at 3 µM; p < 0.05
Method: (§2) The Biovision CYP assays (BioVision, Inc., Kampenhout, Belgium) employ non-fluorescent CYP2D6, 2C9, 2C19, 1A2, or 3A4 substrates able to undergo transformation into highly fluorescent detectable metabolites. […] Human hepatic microsomal supernatants were prepared (Gibco, Biocentre, Szeged, Hungary protein concentration: 20 mg/mL) separately by mixing 30 µL with 2425 µL assay buffer and with 50 µL nicotinamide adenine dinucleotide phosphate (NADPH) generating system (100×). […] Control measurements were performed in the absence of the inhibitors.
(§3) In background controls, only assay buffer excluding microsomes and test compounds was used in a volume of 70 µL. Subsequently, after incubation at 37 °C for 15 min, 30 µL of the suitable CYP substrate/NADP+ mixture was incorporated into each well, resulting in a final reaction volume of 100 µL/well. The obtained microsomal protein content was assessed using the bicinchoninic acid protein assay kit (Pierce BCA kit, Thermo Fisher Scientific, Waltham, MA, USA). In each assay, the microsomal protein concentration was calibrated to 100 µg/well. The fluorescence intensities were measured with a fluorometer (Victor X2 2030, Perkin Elmer, Waltham, MA, USA) using λex/em = 406/468 nm for CYP1A2 and for CYP2C19, λex/em = 415/502 nm for CYP2C9, λex/em = 390/468 nm for CYP2D6, and λex/em = 535/587 nm for CYP3A4 assays.

CYP1A2 = molecular target: T1, CYP1A2 (Homo sapiens, UniProt P05177); assay: as above; conditions: reference inhibitor at 6 µM; p < 0.001
T1 sequence (P05177 1-516): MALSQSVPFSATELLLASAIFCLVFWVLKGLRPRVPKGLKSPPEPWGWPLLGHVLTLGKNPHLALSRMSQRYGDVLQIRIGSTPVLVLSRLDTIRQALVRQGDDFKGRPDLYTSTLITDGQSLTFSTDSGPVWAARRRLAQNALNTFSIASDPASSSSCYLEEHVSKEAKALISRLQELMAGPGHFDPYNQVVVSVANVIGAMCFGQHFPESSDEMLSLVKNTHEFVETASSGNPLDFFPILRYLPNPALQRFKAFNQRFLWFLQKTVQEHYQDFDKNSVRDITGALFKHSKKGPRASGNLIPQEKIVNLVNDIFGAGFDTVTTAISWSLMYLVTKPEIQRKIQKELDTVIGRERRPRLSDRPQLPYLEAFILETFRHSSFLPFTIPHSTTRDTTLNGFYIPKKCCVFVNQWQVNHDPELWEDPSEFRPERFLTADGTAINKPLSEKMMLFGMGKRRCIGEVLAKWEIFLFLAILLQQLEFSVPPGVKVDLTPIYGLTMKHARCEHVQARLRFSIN
Method: as §2, §3

[13] = E. fecalis, source 442, 18–24 h at 37 °C, read-out: MIC
[14] = B. cepacia, source 20-10299, 18–24 h at 37 °C, read-out: MIC

Chain of CYP2D6 (P10635 whole entry): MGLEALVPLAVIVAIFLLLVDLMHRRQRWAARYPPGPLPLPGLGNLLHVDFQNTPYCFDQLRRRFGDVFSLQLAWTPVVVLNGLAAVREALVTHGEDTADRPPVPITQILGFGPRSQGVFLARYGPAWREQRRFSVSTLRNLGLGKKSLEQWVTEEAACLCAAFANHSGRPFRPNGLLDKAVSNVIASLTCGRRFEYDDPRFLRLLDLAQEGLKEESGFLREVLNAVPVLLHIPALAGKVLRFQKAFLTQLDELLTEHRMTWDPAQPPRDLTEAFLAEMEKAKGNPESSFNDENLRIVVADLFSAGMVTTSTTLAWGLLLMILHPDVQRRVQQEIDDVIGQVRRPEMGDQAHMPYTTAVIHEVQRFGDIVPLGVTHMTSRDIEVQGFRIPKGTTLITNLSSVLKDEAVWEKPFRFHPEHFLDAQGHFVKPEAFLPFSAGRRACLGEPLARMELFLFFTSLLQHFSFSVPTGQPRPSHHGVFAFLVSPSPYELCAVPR

## N=C(N)c1cccc(C[C@H](NS(=O)(=O)c2cccc(-c3ccc(Cl)cc3Cl)c2)C(=O)N2CCC(CCN)CC2)c1 [MI-432]
[1]
  MIC: > 800 µM
[2]
  cell viability: significantly decreased cell viability; also recorded: reduction in the number of viable cells
IPEC-J2 cells [3]; IPEC-J2, S. suis 10^4 CFU/mL in combination with inhibitor 50 µM
  EC H2O2 production: unchanged H₂O₂ production; also recorded: antioxidant properties
IPEC-J2 cells [3]; IPEC-J2, inhibitor alone 50 µM
  EC H2O2 production: unchanged H₂O₂ production
SARS-CoV-2
  efficacy against SARS-CoV-2: effective
Monkey CYP1A2 enzymes
  inhibition of monkey CYP1A2 enzymes: significant inhibition
S. suis serotype 2; Streptococcus suis
  MIC: 1.5 µM (≈ 0.904 µg/mL)
S. suis serotype 2
  MIC: < 1.5625 µM
S. suis serotype 2; listed as 432
  MIC: <1.5625 µM
[4]; read-out: MIC
  MIC: 50 µM (≈ 30.1 µg/mL)
IPEC-J2 cells [5]
  IL-6 levels: significant anti-inflammatory effects
Porcine hepatocytes
  IL-6 levels: significant anti-inflammatory effects
[6]; Enterococcus
  MIC: > 800 µM
IPEC-J2 cells [7]
  cell viability: slightly less worsening of the cells; also recorded: reduction in the number of viable cells
[8]
  MIC: 800 µM (≈ 482 µg/mL)
[9]
  MIC: > 800 µM

## COc1ccc(-c2cccc(S(=O)(=O)N[C@@H](Cc3cccc(C(=N)N)c3)C(=O)N3CCC(N)CC3)c2)c(OC)c1 [MI-472]
[1]
  MIC: >800 µM
S. suis serotype 2
  MIC: 50 µM (≈ 28.3 µg/mL)
[4]; read-out: MIC
  MIC: 800 µM (≈ 453 µg/mL)
[10]
  MIC: >800 µM
[6]; [13]
  MIC: >800 µM
[11]
  MIC: 400 µM (≈ 226 µg/mL)
[8]; [14]
  MIC: 800 µM (≈ 453 µg/mL)
[9]
  MIC: >800 µM

## COc1ccc(-c2cccc(S(=O)(=O)N[C@@H](Cc3cccc(C(=N)N)c3)C(=O)N3CCC(NC(=O)NC(C)(C)C)CC3)c2)c(OC)c1 [MI-485]
[1]
  MIC: >800 µM
S. suis serotype 2
  MIC: 50 µM (≈ 33.2 µg/mL)
[4]
  MIC: 100 to 200 µM
[4]; read-out: MIC
  MIC: 200 µM (≈ 133 µg/mL)
[10]
  MIC: >800 µM
[6]; [13]
  MIC: >800 µM
[11]
  MIC: >800 µM
[8]; [14]
  MIC: 800 µM (≈ 532 µg/mL)
[9]
  MIC: >800 µM

## COc1ccc(-c2cccc(S(=O)(=O)N[C@@H](Cc3cccc(C(=N)N)c3)C(=O)N3CCN(C(=O)NC4CCCCC4)CC3)c2)c(OC)c1 [MI-1900, reference compound]
SARS-CoV-2
  efficacy against SARS-CoV-2: effective

## CO/N=C(\C(=O)N[C@@H]1C(=O)N2C(C(=O)O)=C(CSC(=O)c3ccco3)CS[C@H]12)c1csc(N)n1 [ceftiofur]
[12]
  S. suis strains found to be sensitive: 97%

## CCN1CCN(c2cc3c(cc2F)c(=O)c(C(=O)O)cn3C2CC2)CC1 [enrofloxacin]
[12]
  S. suis strains sensitive: more than 95%

## CS(=O)(=O)c1ccc([C@@H](O)[C@@H](CF)NC(=O)C(Cl)Cl)cc1 [florfenicol]
[12]
  S. suis strains sensitive: more than 95%

## C=C[C@H]1C[N@@]2CC[C@H]1C[C@@H]2[C@@H](O)c1ccnc2ccc(OC)cc12 [quinidine]
CYP2D6
  CYP2D6 activity: significantly suppressed

## CN(C)[C@@H]1C(O)=C(C(N)=O)C(=O)[C@@]2(O)C(O)=C3C(=O)c4c(O)cccc4[C@@](C)(O)[C@H]3C[C@@H]12 [tetracycline]
[12]
  S. suis strains sensitive: 4%

## O=c1cc(-c2ccccc2)oc2c1ccc1ccccc12 [α-naphthoflavone, reference compound]
CYP1A2
  CYP1A2 activity: significantly suppressed

## amoxicillin–clavulanic acid
[12]
  S. suis strains found to be sensitive: 100%
